# Positions of bridges follow the written chain, without caps; N, C: chain ends. Residues, ends and D or L forms follow the SMILES beside them.
# Key:
# [1] = DPPH radical scavenging; settings: at 3.125 μg/mL, 37 °C, 30 min in the dark, absorbance 517 nm; without concentration dependence
# Procedure: DPPH^+ scavenging capacity: A 30 mL volume of […], Shanghai, China) solution was prepared with anhydrous ethanol and adjusted to reach an OD517 nm = 0.7. […] The Brevinin-1BW and DPPH solutions were mixed in equal volumes as the experimental group, incubated at 37 °C in the dark for 30 min, and then measured for the absorbance as A2. Vitamin C was used as the positive control. Its clearance rate was calculated according to the following formula: […]
# [2] = tested on: HFF; assay type: cell-based, human; settings: 24 h
# [3] = tested on: S. aureus mature biofilm; assay: Biofilm clearance, crystal violet; assay type: cell-based, Staphylococcus aureus; settings: S. aureus 24 h biofilm
# Procedure: Biofilm clearance of Brevinin-1BW was determined using a 96-well plate assay by first inoculating 100 µL of S. aureus bacterial suspension (5 × 10^5 CFU/mL) and incubating for 24 h at 37 °C. They were washed three times with sterile PBS. […] After 24 h of incubation, the cells were washed three times with sterile PBS. Methanol was added and fixed for 0.5 h and dried aseptically. A 1% crystal violet solution was added for 0.5 h and washed three times with sterilized deionized water. Absolute ethanol dissolved the biofilm. Absorbance was measured at 600 nm. Experiments were repeated four times independently.
# [4] = tested on: Hela; assay type: cell-based, human; settings: 24 h
# Procedure: (§1) Medium was prepared to contain 10% FBS (TransGen Biotech, China) and 1% penicillin-streptomycin (Biosharp, Guangzhou, China). A549, U-2OS, HePG2, HaCaT, HUVEC, and 293T cells were cultured in DMEM medium (Gibco, New York, NY, USA). A375, HCT116, Hela, and RAW264.7 cells were cultured in RPMI 1640 medium (Gibco, New York, NY, USA). The cytotoxicity of Brevinin-1BW was determined using the Cell Counting Kit-8 as follows: detached the cells from cell culture flasks with 0.25% trypsin, counted with a hemocytometer plate and then prepared into a cell suspension containing 5 × 10^3 cells/mL. Then, 90 μL of the cell suspension was inoculated into a 96-well plate and incubated at 37 °C in a 5% CO2-humidified atmosphere for 24 h. A 10 μL volume of the peptide was subsequently added to each well and co-incubated with the cells for 24 h. Then, 10 μL of CCK8 (Abbkine, Wuhan, China) was added to each well and incubated for a further 2 h. The absorbance of each well at 450 nm was measured using a multifunctional enzyme marker. […] Three replicate wells were set up for each experiment, and each experiment was repeated three times. The formula for calculating the cell viability is shown below.
# [5] = tested on: A375; assay type: cell-based, human; settings: 24 h
# Procedure: as §1
# [6] = tested on: HePG2; assay type: cell-based, human; settings: 24 h
# Procedure: as §1
# [7] = tested on: HUVEC; assay type: cell-based, human; settings: 24 h
# Procedure: as §1
# [8] = tested on: A549; assay type: cell-based, human; settings: 24 h
# Procedure: as §1
# [9] = tested on: HaCaT; assay type: cell-based, human; settings: 24 h
# Procedure: as §1
# [10] = tested on: HCT116; assay type: cell-based, human; settings: 24 h
# Procedure: as §1
# [11] = tested on: 293T; assay type: cell-based, human; settings: 24 h
# Procedure: as §1
# [12] = tested on: U-2OS; assay type: cell-based, human; settings: 24 h
# Procedure: as §1
# [13] = tested on: S. haemolyticus (CI 1607BLD590); assay: microbe, parasite or virus in culture; assay type: cell-based, Staphylococcus haemolyticus; settings: CI 1607BLD590, 18 h
# Procedure: (§2) The minimum inhibitory concentration (MIC) of the Brevinin-1BW was measured in 96-well microtiter plates according to the Clinical and Laboratory Standards Institute (CLSI). The activated strains were treated with Mueller Hinton Agar (MHA) solid medium. Single colonies were picked and expanded to the logarithmic growth phase, and the solution was diluted to 2 × 10^6 CFU/mL using the McFarland turbidity standard. The MIC was determined with the two-fold dilution method. Briefly, 50 μL of Mueller Hinton (MH) medium was added to a 96-well plate in advance. Then, 50 μL of AMP solution was added to the first well, and 50 μL was pipetted into the next well after mixing using a row gun, while 50 μL was discarded from the last well. Final concentrations of Brevinin-1BW were 100, 50, 25, 12.5, 6.25, and 3.125 μg/mL. A 50 μL volume of the diluted bacterial solution was added, and the final concentration of the bacterial solution was 1 × 10^6 CFU/mL. This was then placed into a 37 °C incubator for 18 h until the next day to observe the degree of turbidity of the 96-well plate and measure the absorbance of the wells at 600 nm with a multifunctional microplate reader (SpectraMax iD5, Molecular Devices, Sunnyvale, CA, USA). The absence of turbidity and the measured concentration of absorbance being less than the opposing group was taken as the MIC. The positive control used ampicillin at the same final concentration as Brevinin-1BW, the negative control used 50 μL of MH medium mixed with 50 μL of 2 × 10^6 CFU/mL bacterial solution, and the blank contained only 100 μL of MH medium. Three replicate wells were set up for each experiment, and each experiment was repeated three times. The MIC and all concentrations above the MIC of bacterial solution coated on MHA solid medium were placed into 37 °C incubator incubation for 18 h. The lowest concentration resulting in no colony growth was taken as the minimum bactericidal concentration (MBC).
# [14] = tested on: E. coli (ATCC25922); assay: microbe, parasite or virus in culture; assay type: cell-based; settings: ATCC25922, 18 h
# Procedure: as §2
# [15] = tested on: P. aeruginosa (ATCC27853); assay: microbe, parasite or virus in culture; assay type: cell-based, Pseudomonas aeruginosa; settings: ATCC27853, 18 h
# Procedure: as §2
# [16] = tested on: sheep erythrocytes; assay type: cell-based; settings: red cells of sheep, 2 h
# Procedure: A hemolytic assay of Brevinin-1BW was conducted using sheep erythrocytes (Solarbio, Beijing, China) at a concentration of 2% (v/v) of erythrocyte suspension. […] After centrifugation at 1000 rpm for 15 min, the absorbance of the supernatant was analyzed using a multifunctional enzyme standardizer with the wavelength set at 570 nm. The experiment was repeated three times. […] Haemolysis%=(A0−A2)/(A0−A1)×100
# [17] = tested on: K. pneumoniae (ATCC700603); assay: microbe, parasite or virus in culture; assay type: cell-based, Klebsiella pneumoniae; settings: ATCC700603, 18 h
# Procedure: as §2
compound,measurement,setting,value
CC[C@H](C)[C@@H]1NC(=O)[C@H](CCCCN)NC(=O)[C@@H](NC(=O)[C@H](Cc2ccccc2)NC(=O)[C@@H](NC(=O)[C@@H](NC(=O)[C@@H]2CCCN2C(=O)[C@H](CC(C)C)NC(=O)[C@H](Cc2ccccc2)NC(=O)[C@H](CO)NC(=O)[C@H](C)NC(=O)[C@H](C)NC(=O)[C@H](CC(C)C)NC(=O)CNC(=O)[C@H](C)NC(=O)[C@H](CC(C)C)NC(=O)[C@H](CC(C)C)NC(=O)[C@@H]2CCCN2C(=O)[C@H](CC(C)C)NC(=O)[C@@H](N)Cc2ccccc2)[C@@H](C)O)[C@@H](C)CC)CSSC[C@@H](C(=O)O)NC(=O)[C@H](CCCCN)NC(=O)[C@H](CCCNC(=N)N)NC(=O)[C@H](CO)NC1=O [Brevinin-1BW] (H-FLPLLAGLAASFLPTIFCKISRKC-OH; disulfide 18-24),scavenging of DPPH radicals,[1],more than 70%
same,CC50,[2],33.99 ± 0.48 µg/mL
same,clearance rate of the mature biofilm,[3]; 0.5 × MIC,50.02%
same,clearance rate of the mature biofilm,[3]; 2 × MIC,60.99%
same,CC50,[4],37.62 ± 0.91 µg/mL
same,CC50,[5],23.79 ± 0.80 µg/mL
same,CC50,[6],25.42 ± 0.49 µg/mL
same,CC50,[7],43.62 ± 0.77 µg/mL
same,CC50,[8],27.64 ± 0.41 µg/mL
same,CC50,[9],36.84 ± 1.44 µg/mL
same,CC50,[10],35.44 ± 0.47 µg/mL
same,CC50,[11],28.34 ± 1.08 µg/mL
same,CC50,[12],39.20 ± 0.40 µg/mL
same,MBC,[13],25 µg/mL
same,MIC,[13],12.5 µg/mL
same,MBC,[14],>100 µg/mL
same,MIC,[14],100 µg/mL
same,MBC,[15],>100 µg/mL
same,MIC,[15],100 µg/mL
same,HC50 (50% hemolytic concentration),[16],35.8 µg/mL
same,MBC,[17],>100 µg/mL
same,MIC,[17],>100 µg/mL
